Reference: patent US20170283340A1, “ALKYL THIOPHOSPHORIC TRIAMIDE AND NEEM OIL SOLVENT SYSTEMS FOR USE IN AGRICULTURAL APPLICATIONS” (RHODIA OPERATIONS, priority 2016, published 2017)

Experiments:
[1] = cited from earlier work
[2] = Thermal stability of NBPT at high temperature; type: physicochemical; conditions: followed by sludge/precipitate formation after weeks of high heat
Experimental: Another problem is that certain nitrification inhibitors and/or urease inhibitors degrade at certain high temperatures. […] Often times temperatures in agricultural fields (e.g., corn fields, wheat fields, etc.) reach in excess of 35° C. and sometimes can reach up to 45° C. or higher. For example, at 45° C. […] Thus, it is also desirable to have solvent systems containing nitrification inhibitors and/or urease inhibitors that are stabilized at high temperatures, such as those utilized in hot climates or weather. This invention addresses the addition of co-solvents and/or stabilizers to prolong the chemical and physical stability of formulated liquid agricultural compositions containing (i) one or more nitrification inhibitors, (ii) one or more urease inhibitors or (iii) a combination of both (i) and (ii). In one embodiment, the at least one urease inhibitor is NBPT. In one embodiment, the at least one nitrification inhibitor a natural nitrification inhibitor. In yet another embodiment, the at least one nitrification inhibitor is neem.

[3] = typically above 45° C.; cited from earlier work

Row | SMILES | solubility in water [1] | appearance of NBPT formulated in different solvents at 45° C. [2] | degradation at higher temperature [3]
1 | N#CNC(=N)N [dicyandiamide, Dicyandiamide] | about 41 g/l |  | 
2 | CCCCNP(N)(N)=S [NBPT, N-(n-butyl)-thiophosphoric triamide] |  | changes color in days from colorless to a darker green/brown | degrades rapidly
